In patent US20220087960A1, “Oral Pharmaceutical Immediate Release Composition” (Aardvark Therapeutics Inc., priority 2020, published 2022):
Entries after “also recorded” stand apart in the source; their conditions may differ.

Assays:
[1] = system: diet-induced obesity (DIO) mouse model; assay: 56-day DIO mouse weight loss study comparing DA and DB (Example 3); assay type: in vivo; settings: DIO mice
From the text: The 56-day study determined the behavioral effects of bitter taste receptor agonists denatonium acetate (DA) compared to denatonium benzoate (DB) in a diet-induced obesity (DIO) mouse model. […] The study duration was a 3-5 day acclimation period+[…] study period and 2-3 day testing period after study. […] The mice were C57BL/6NTad mice at least 12 weeks in age and 15 mice per group (low dose DA, higher dose DA, high dose DB and control). […] Metabolic biomarkers (blood glucose, blood insulin, blood HbA1c) were measured at the beginning and end of the study. The DA, DB or distilled water control was administered per ostium gavage (PO) at a volume of 5 mL/kg body weight.

male Sprague Dawley rats = assay: 24 hour food intake study in rats comparing DA to DB (Example 4); assay type: in vivo, rat; settings: gavage, DA high dose 23.1 mg/kg
Description: This example provides a 24 hour study comparing DA to DB is rats (male Sprague Dawley, Charles River) over a 24 hour period. The […] of 15 rats each were vehicle controlled distilled water gavage QID, DB at a dose of 26.8 mg/kg gavage QID, DA low dose 2.9 mg/kg gavage QD, and DA high dose 23.1 mg/kg gavage QD. Food intake at 2 hr, 4 hr, 6 hr, 8 hr and 24 hr after administration was measured.

male SD rats = assay: Single oral dose food intake study, 24-hour observational period (Example 6, first in vivo study); parameters: species or system rat
Description: This example compares efficacy of DA versus DB in food inhibition and body weight control. As a background, according to Avau et al., Sci. Rep. […] In our first in vivo study, 45 male SD rats (purchased from Envigo at 8-10 weeks of age) were divided into three groups (15 in each group), which were administered a single oral dose of vehicle (distilled water), 26.8 mg/kg of DB, or 23.1 mg/kg of DA respectively, with a 24-hour observational period, to compare the efficacy of DB versus DA in reducing food intake. Table 4. Mean cumulative food intake during 24-h observational period

male C57BL/6N DIO mice = assay: 56-day BID treatment, food consumption and body weight in DIO mice (Example 6, second in vivo study); parameters: species or system mouse
Description: In a second in vivo study, 45 male C57BL/6N DIO mice (purchased from Envigo at 18 weeks of age, fed with high-fat diet) were divided into three groups (15 in each group), which were orally administered vehicle (distilled water), 26.8 mg/kg of DB, or 23.1 mg/kg of DA respectively, twice daily (BID), with a 56-day treatment period to compare the efficacy of DB versus DA in food intake reduction and body weight control. Briefly, once weekly, the food weight for each cage was recorded at 0 hour and then 24 hours later, permitting calculation of food consumption for that 24-hour interval. In addition, starting from Day 0, the mice were weighed three times weekly (every 2-3 days).

in vivo = settings: both, Sprague Dawley, rat, po
Description: (§1) The drugs were administered to Sprague Dawley rats with a 14-day observational period. Twenty-four Male Sprague Dawley (SD) rats and 24 female SD rats were purchased from Envigo at 8-10 weeks of age. The DA group had four dose levels (120, 360, 1000, and 2000 mg/kg, single administration by oral gavage), 3 rats per sex, 6 animals in total per dose level; and the DB group: four dose levels (120, 360, 1000, and 2000 mg/kg, single administration by oral gavage), 3 rats per sex, 6 animals in total per dose level. The estimated median lethal dose (LD50) was determined by a nonlinear regression [model: Y=100/(1+10^(LogEC50-X)), Hill slope=1.0) to calculate LD50.

Sprague Dawley rats = assay: in vivo; settings: rat, po
Description: as §1

## CC(=O)[O-].CC[N+](CC)(CC(=O)Nc1c(C)cccc1C)Cc1ccccc1 [DA, Denatonium acetate]
[1]; 56 day study, DA 23.1 mg/kg BID PO
  body weights at the indicated days (FIG. 1): lowest average body weights
[1]; DA 23.1 mg/kg BID PO compared with DB 26.8 mg/kg BID
  body weight changes of the 56 day study (FIG. 2): lowest increase in body weight; also recorded: weight loss improvement of higher dose DA over higher dose DB
[1]; DA 23.1 mg/kg BID PO, compared with pre-treatment and vehicle
  serum insulin at the end of the 56 day study (FIG. 3): close to baseline value
Male Sprague Dawley rats
  cumulative food consumption over 24 hours (FIG. 5): largest impact
Male SD rats; 23.1 mg/kg DA vs 26.8 mg/kg DB
  food intake reduction, DA compared with DB: a greater food intake reduction
Male SD rats; single oral dose (DA 23.1 mg/kg, DB 26.8 mg/kg), 0-2 h, N = 15
  Mean cumulative food intake 0-2 h: 4.7 gram
Male SD rats; single oral dose (DA 23.1 mg/kg, DB 26.8 mg/kg), 0-4 h, N = 15
  Mean cumulative food intake 0-4 h: 7.3 gram
Male SD rats; single oral dose (DA 23.1 mg/kg, DB 26.8 mg/kg), 0-6 h, N = 15
  Mean cumulative food intake 0-6 h: 10.3 gram
Male SD rats; single oral dose (DA 23.1 mg/kg, DB 26.8 mg/kg), 0-8 h, N = 15
  Mean cumulative food intake 0-8 h: 12.5 gram
Male SD rats; single oral dose (DA 23.1 mg/kg, DB 26.8 mg/kg), 0-24 h, N = 15
  Mean cumulative food intake 0-24 h: 20.2 gram
Male SD rats; single oral dose, all indicated time intervals
  cumulative food intake as compared with vehicle: reduced cumulative food intake during all the indicated time intervals as compared with vehicle
Male C57BL/6N DIO mice; DIO mice on high-fat diet, 26.8 mg/kg DB or 23.1 mg/kg DA BID
  body weight gain as compared to vehicle treatment: less body weight gain as compared to vehicle treatment
Male C57BL/6N DIO mice; DIO mice, BID oral (DA 23.1 mg/kg, DB 26.8 mg/kg), Day 0
  Mean food consumption per animal for 24-h interval, Day 0: 2.2 gram
Male C57BL/6N DIO mice; DIO mice, BID oral (DA 23.1 mg/kg, DB 26.8 mg/kg), Day 7
  Mean food consumption per animal for 24-h interval, Day 7: 1.7 gram
Male C57BL/6N DIO mice; DIO mice, BID oral (DA 23.1 mg/kg, DB 26.8 mg/kg), Day 14
  Mean food consumption per animal for 24-h interval, Day 14: 1.9 gram
Male C57BL/6N DIO mice; DIO mice, BID oral (DA 23.1 mg/kg, DB 26.8 mg/kg), Day 21
  Mean food consumption per animal for 24-h interval, Day 21: 2.3 gram
Male C57BL/6N DIO mice; DIO mice, BID oral (DA 23.1 mg/kg, DB 26.8 mg/kg), Day 28
  Mean food consumption per animal for 24-h interval, Day 28: 2.0 gram
Male C57BL/6N DIO mice; DIO mice, BID oral (DA 23.1 mg/kg, DB 26.8 mg/kg), Day 35
  Mean food consumption per animal for 24-h interval, Day 35: 2.4 gram
Male C57BL/6N DIO mice; DIO mice, BID oral (DA 23.1 mg/kg, DB 26.8 mg/kg), Day 42
  Mean food consumption per animal for 24-h interval, Day 42: 2.0 gram
Male C57BL/6N DIO mice; DIO mice, BID oral (DA 23.1 mg/kg, DB 26.8 mg/kg), Day 49
  Mean food consumption per animal for 24-h interval, Day 49: 2.3 gram
Male C57BL/6N DIO mice; DIO mice, BID oral (DA 23.1 mg/kg, DB 26.8 mg/kg), Day 56
  Mean food consumption per animal for 24-h interval, Day 56: 1.7 gram
Male C57BL/6N DIO mice; DIO mice, BID oral (DA 23.1 mg/kg, DB 26.8 mg/kg), day 0
  Mean normalized body weight (% of baseline), study day 0: 100.0 % of baseline
Male C57BL/6N DIO mice; DIO mice, BID oral (DA 23.1 mg/kg, DB 26.8 mg/kg), day 4
  Mean normalized body weight (% of baseline), study day 4: 101.1 % of baseline
Male C57BL/6N DIO mice; DIO mice, BID oral (DA 23.1 mg/kg, DB 26.8 mg/kg), day 7
  Mean normalized body weight (% of baseline), study day 7: 100.6 % of baseline
Male C57BL/6N DIO mice; DIO mice, BID oral (DA 23.1 mg/kg, DB 26.8 mg/kg), day 9
  Mean normalized body weight (% of baseline), study day 9: 99.5 % of baseline
Male C57BL/6N DIO mice; DIO mice, BID oral (DA 23.1 mg/kg, DB 26.8 mg/kg), day 11
  Mean normalized body weight (% of baseline), study day 11: 98.8 % of baseline
Male C57BL/6N DIO mice; DIO mice, BID oral (DA 23.1 mg/kg, DB 26.8 mg/kg), day 14
  Mean normalized body weight (% of baseline), study day 14: 99.6 % of baseline
Male C57BL/6N DIO mice; DIO mice, BID oral (DA 23.1 mg/kg, DB 26.8 mg/kg), day 16
  Mean normalized body weight (% of baseline), study day 16: 98.5 % of baseline
Male C57BL/6N DIO mice; DIO mice, BID oral (DA 23.1 mg/kg, DB 26.8 mg/kg), day 18
  Mean normalized body weight (% of baseline), study day 18: 98.4 % of baseline
Male C57BL/6N DIO mice; DIO mice, BID oral (DA 23.1 mg/kg, DB 26.8 mg/kg), day 21
  Mean normalized body weight (% of baseline), study day 21: 99.9 % of baseline
Male C57BL/6N DIO mice; DIO mice, BID oral (DA 23.1 mg/kg, DB 26.8 mg/kg), day 23
  Mean normalized body weight (% of baseline), study day 23: 99.9 % of baseline
Male C57BL/6N DIO mice; DIO mice, BID oral (DA 23.1 mg/kg, DB 26.8 mg/kg), day 25
  Mean normalized body weight (% of baseline), study day 25: 100.0 % of baseline
Male C57BL/6N DIO mice; DIO mice, BID oral (DA 23.1 mg/kg, DB 26.8 mg/kg), day 28
  Mean normalized body weight (% of baseline), study day 28: 100.0 % of baseline
Male C57BL/6N DIO mice; DIO mice, BID oral (DA 23.1 mg/kg, DB 26.8 mg/kg), day 30
  Mean normalized body weight (% of baseline), study day 30: 100.0 % of baseline
Male C57BL/6N DIO mice; DIO mice, BID oral (DA 23.1 mg/kg, DB 26.8 mg/kg), day 32
  Mean normalized body weight (% of baseline), study day 32: 102.0 % of baseline
Male C57BL/6N DIO mice; DIO mice, BID oral (DA 23.1 mg/kg, DB 26.8 mg/kg), day 34
  Mean normalized body weight (% of baseline), study day 34: 101.9 % of baseline
Male C57BL/6N DIO mice; DIO mice, BID oral (DA 23.1 mg/kg, DB 26.8 mg/kg), day 36
  Mean normalized body weight (% of baseline), study day 36: 101.5 % of baseline
Male C57BL/6N DIO mice; DIO mice, BID oral (DA 23.1 mg/kg, DB 26.8 mg/kg), day 39
  Mean normalized body weight (% of baseline), study day 39: 102.6 % of baseline
Male C57BL/6N DIO mice; DIO mice, BID oral (DA 23.1 mg/kg, DB 26.8 mg/kg), day 41
  Mean normalized body weight (% of baseline), study day 41: 103.1 % of baseline
Male C57BL/6N DIO mice; DIO mice, BID oral (DA 23.1 mg/kg, DB 26.8 mg/kg), day 46
  Mean normalized body weight (% of baseline), study day 46: 103.9 % of baseline
Male C57BL/6N DIO mice; DIO mice, BID oral (DA 23.1 mg/kg, DB 26.8 mg/kg), day 49
  Mean normalized body weight (% of baseline), study day 49: 104.7 % of baseline
Male C57BL/6N DIO mice; DIO mice, BID oral (DA 23.1 mg/kg, DB 26.8 mg/kg), day 51
  Mean normalized body weight (% of baseline), study day 51: 104.9 % of baseline
Male C57BL/6N DIO mice; DIO mice, BID oral (DA 23.1 mg/kg, DB 26.8 mg/kg), day 53
  Mean normalized body weight (% of baseline), study day 53: 105.2 % of baseline
Male C57BL/6N DIO mice; DIO mice, BID oral (DA 23.1 mg/kg, DB 26.8 mg/kg), day 56
  Mean normalized body weight (% of baseline), study day 56: 106.7 % of baseline
Male C57BL/6N DIO mice; DIO mice, BID oral, 56-day treatment
  food consumption compared to vehicle-dosed mice: nominally decreased food consumption compared to vehicle-dosed mice
Male C57BL/6N DIO mice; DIO mice, Day 34 to Day 56
  body weight gain, DA compared with DB: body weight gain was less
Male C57BL/6N DIO mice; DIO mice, all indicated measurement days except for Day 42
  food consumption, DA compared with DB: food consumption was less
In vivo
  LD50 at 14 day: 945 mg/kg
  MTD at 14 day: 360 mg/kg
Sprague Dawley rats; both, 120 mg/kg, 14 day
  Mortality rate: 0%
Sprague Dawley rats; both, 360 mg/kg, 14 day
  Mortality rate: 0%
Sprague Dawley rats; both, 1000 mg/kg, 14 day
  Mortality rate: 50%
Sprague Dawley rats; both, 2000 mg/kg, 14 day
  Mortality rate: 100%
Sprague Dawley rats; both, 14 day
  Estimated LD50: 945 mg/kg
Sprague Dawley rats; female, 120 mg/kg
  No. of animals died within 24 h post dosing: 0
Sprague Dawley rats; female, 360 mg/kg
  No. of animals died within 24 h post dosing: 0
Sprague Dawley rats; female, 1000 mg/kg
  No. of animals died within 24 h post dosing: 3
Sprague Dawley rats; female, 2000 mg/kg
  No. of animals died within 24 h post dosing: 3
Sprague Dawley rats; male, 120 mg/kg
  No. of animals died within 24 h post dosing: 0
Sprague Dawley rats; male, 360 mg/kg
  No. of animals died within 24 h post dosing: 0
Sprague Dawley rats; male, 1000 mg/kg
  No. of animals died within 24 h post dosing: 0
Sprague Dawley rats; male, 2000 mg/kg
  No. of animals died within 24 h post dosing: 3
